{
  "source": "patent US20140128337A1",
  "about": "“Curcuminoids in Combination Docetaxel for the Treatment of Cancer and Tumour Metastasis” (Institut National de la Sante et de la Recherche Medicale …, priority 2009, published 2014)",
  "key": {"P-glycoprotein (Pgp)": {"target": "T1, P-glycoprotein (Pgp) (Homo sapiens, UniProt P08183)", "T1 construct": "expressed in transfected cells; host or cells: MDCK (canine kidney) cells stably transfected with human MDR1", "T1 sequence (P08183 whole entry)": "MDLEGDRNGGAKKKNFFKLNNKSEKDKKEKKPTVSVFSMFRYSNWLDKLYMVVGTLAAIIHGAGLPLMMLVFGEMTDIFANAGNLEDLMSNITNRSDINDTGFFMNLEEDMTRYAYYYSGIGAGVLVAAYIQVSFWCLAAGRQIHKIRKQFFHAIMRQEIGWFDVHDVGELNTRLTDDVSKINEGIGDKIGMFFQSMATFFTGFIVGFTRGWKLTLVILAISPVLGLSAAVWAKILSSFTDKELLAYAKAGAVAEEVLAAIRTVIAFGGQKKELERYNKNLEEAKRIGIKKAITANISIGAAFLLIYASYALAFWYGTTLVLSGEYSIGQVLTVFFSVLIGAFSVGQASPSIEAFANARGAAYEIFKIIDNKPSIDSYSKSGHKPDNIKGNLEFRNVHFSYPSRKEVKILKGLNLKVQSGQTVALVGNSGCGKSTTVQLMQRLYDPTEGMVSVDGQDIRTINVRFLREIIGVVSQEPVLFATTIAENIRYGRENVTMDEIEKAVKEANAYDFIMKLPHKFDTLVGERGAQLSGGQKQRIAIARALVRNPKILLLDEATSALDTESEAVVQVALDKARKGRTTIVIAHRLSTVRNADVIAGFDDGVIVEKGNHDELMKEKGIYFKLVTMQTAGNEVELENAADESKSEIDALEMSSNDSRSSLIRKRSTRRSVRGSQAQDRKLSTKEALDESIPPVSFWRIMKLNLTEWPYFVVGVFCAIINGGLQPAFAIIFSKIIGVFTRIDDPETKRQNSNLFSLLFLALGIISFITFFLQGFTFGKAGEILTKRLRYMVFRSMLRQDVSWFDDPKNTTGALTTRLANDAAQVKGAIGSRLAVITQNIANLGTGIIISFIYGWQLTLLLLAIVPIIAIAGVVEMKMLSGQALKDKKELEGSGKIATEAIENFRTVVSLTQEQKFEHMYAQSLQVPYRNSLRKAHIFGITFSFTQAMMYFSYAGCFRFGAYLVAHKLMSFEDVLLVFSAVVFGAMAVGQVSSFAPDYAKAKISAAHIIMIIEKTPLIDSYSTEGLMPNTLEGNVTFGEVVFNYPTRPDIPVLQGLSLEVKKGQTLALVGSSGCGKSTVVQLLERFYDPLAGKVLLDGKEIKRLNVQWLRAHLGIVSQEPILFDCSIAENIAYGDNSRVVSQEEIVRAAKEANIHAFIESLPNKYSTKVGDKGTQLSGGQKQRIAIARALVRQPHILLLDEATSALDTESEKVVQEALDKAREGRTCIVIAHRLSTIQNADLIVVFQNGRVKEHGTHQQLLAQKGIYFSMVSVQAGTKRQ", "assay": "Inhibition of [3H]-VBL efflux by MDCK-MDR1 cells", "format": "cell-based", "conditions": "CV-3988 10 uM, 30-min pre-exposure", "description": "Inhibition of [^3H]-VBL efflux by MDCK-MDR1 cells: [^3H]-VBL was determined by scintillation counting accordingly to (Barthomeuf et al. Cancer Chemother Pharmacol 2005; 56: 173-81). […] The cells were then exposed for 120 min to 20 nM of ^3H-VBL (0.23 μCi). ^3H-VBL accumulation was stopped by washing the cells (5-fold) with cold PBS (150 mM NaCl, 2.7 mM KCl, 1.3 mM KH2PO4, 8.1 mM, Na2HPO4, pH 7.4). The cells were lysed with 0.1% Triton X-100 and the radioactivity was counted."}, "U87 glioblastoma cells": {"test_system": "U87 glioblastoma cells", "assay": "Curcumin/DTX co-treatment, cell proliferation and survival", "format": "cell-based, human", "conditions": "curcumin 10 uM + DTX 1 nM, 48 h co-treatment", "experimental": "(§1) Cell culture: Madine Darby canine kidney (MDCK-MDR1) cells, provided by Amanda Yancy (AstraZeneca Pharmaceuticals), were cultured in DMEM supplemented with 10% FBS as reported previously (Barthomeuf et al. 2005). Human primary fibroblasts were purchased from Biopredic International (Rennes, France). Human MCF7 (ER+breast), A549 (non small cell lung), PC3 (androgen-resistant prostate) DLD1 (colon), PA1 (ovary), MDA-mb-231 (ER-, PTEN positive), MDA-mb-468 (ER-, PTEN negative) carcinoma and U87 (glioblastoma) lines were purchased from the European Collection of Cell Cultures (ECACC,\n(§2) Salibury, UK) or the American Type Culture Collection (ATCC, Manassas, Va.). Cells were cultured in modified Eagle's medium (MEM) supplemented with 10% fetal calf serum, 2 mM L-glutamine and 100 units/ml penicillin, and 100 μg/ml streptomycin (Barthomeuf et al. 2002) or MEM supplemented with 1 mM sodium pyruvate and containing 10% FBS and antibiotics (U-87). […]\n(§3) The drugs were administered in DMSO 0.5%. Cell proliferation and attachment to the matrix were determined by measuring the amount of resazurin reduced by esterases from living cells (RTT assay) and by measuring the amount of attached biomass with the DNA binding agent (Ho 33342). Fluorescence was assayed at 590/630 nm (RTT assay) or 360/460 nm (Ho assay) as described in (Barthomeuf et al. Planta Med 2002)."}, "PAF synthesis": {"test_system": "PAF synthesis", "assay": "PAF synthesis, incorporation of [3H]-acetate into lyso-PAF in MDCK-MDR1 cells", "format": "cell-based, canine", "conditions": "curcumin 30 min, doses observable in man", "experimental": "PAF synthesis: PAF synthesis was measured by incorporation of [^3H]-acetate into lyso-PAF accordingly to the protocol described in (Bernatchez PN et al. Br. J. Pharmacol. 2001 134: 1252-1262 and Barthomeuf C. et al. Free Rad Biol Med 2006, 40: 581-590). […] The reaction was stopped by addition of acidified methanol. Polar lipids were isolated according to Bligh and Dyer. After solvent evaporation under N2, ^3H-PAF was purified by HPLC on silica gel, and quantified by radioactivity counting vs authentic ^3H-PAF."}, "[1]": {"test_system": "panel of cancer lines issued from human solid tumors", "assay": "Antiproliferative effect on a panel of cancer lines, resazurin reduction test", "format": "cell-based", "conditions": "curcumin 10 uM", "experimental": "as §1, §2\nThe drugs were administered in DMSO 0.5%. Cell proliferation and attachment to the matrix were determined by measuring the amount of resazurin reduced by esterases from living cells (RTT assay) and by measuring the amount of attached biomass with the DNA binding agent (Ho 33342). Fluorescence was assayed at 590/630 nm (RTT assay) or 360/460 nm (Ho assay) as described in (Barthomeuf et al. Planta Med 2002). […]"}, "[2]": {"test_system": "advanced colorectal cancer", "conditions": "36-180 mg/day; cited from earlier work"}, "HIF-1α": {"test_system": "HIF-1α", "assay": "Western blot of HIF-1α in MCF7 cells", "format": "cell-based, human", "experimental": "Western blot: After treatment, control and treated cells were washed with PBS, then incubated in PBS containing 1 mM of each NaF and Na3VO4 and solubilized on ice in lysis buffer [150 mM NaCl, 10 mM Tris-HCl, pH 7.4, 1 mM EDTA, 1 mM EGTA, 1 mM NaF, 1 mM Na3VO4, 0.5% (v/v) Nonidet P-40, and 1% (v/v) Triton X-100] or in FosRipa buffer (10 mM Tris/HCl pH 7.5, 250 mM NaCl, 0.1% SDS, 1% Nonidet P40, 1% sodium deoxycholate). […] Protein concentrations and Western blotting was performed according to standard procedures. […] Mouse monoclonal antisera directed against HIF-1α or survivin were used as primary antibodies and horseradish peroxidase-coupled anti-mouse (Dako) as secondary antibodies.\nThen HIF-1α was assessed by Western blotting."}, "[3]": {"test_system": "PA1 ovarian carcinoma cells", "assay": "Cell proliferation, resazurin reduction test (RTT assay)", "format": "cell-based, human", "conditions": "curcumin 10 uM", "experimental": "as §1\n(§4) Salibury, UK) or the American Type Culture Collection (ATCC, Manassas, Va.). Cells were cultured in modified Eagle's medium (MEM) supplemented with 10% fetal calf serum, 2 mM L-glutamine and 100 units/ml penicillin, and 100 μg/ml streptomycin (Barthomeuf et al. 2002) or MEM supplemented with 1 mM sodium pyruvate and containing 10% FBS and antibiotics (U-87). The cells were cultured at 37° C. under a humidified 95%-5% (v/v) mixture of air and CO2.\nas §3\n(§5) The human tested lines include highly invasive U87 glioblastoma cells (SphK1 overexpression), 5 human carcinoma lines: weakly invasive MCF7 (estrogen receptor (ER) and PTEN positive) and metastatic MDA-mb-468 (ER and PTEN lack of function) breast carcinoma cells, metastatic PC3 (androgen resistant, p53 loss of function) prostate carcinoma cells, highly proliferative PA1 ovarian carcinoma cells and DLD1 (Pgp-positive) colon carcinoma cells. Primary fibroblasts were used as a model of human non-tumoral cells. Assays were conducted on exponentially growing human cells cultured overnight in MEM supplemented with 10% FBS. […] This supports a value of curcumin/DTX combination for treatment of tumors displaying these characteristics."}, "[4]": {"test_system": "MDA-mb-468 breast carcinoma cells", "assay": "Cell proliferation, resazurin reduction test (RTT assay)", "format": "cell-based, human", "experimental": "as §1, §4, §3, §5"}, "primary fibroblasts": {"test_system": "primary fibroblasts", "assay": "Cell proliferation, resazurin reduction test (RTT assay)", "format": "cell-based, human", "conditions": "curcumin 10 uM", "experimental": "as §1, §4, §3, §5"}, "MCF7 cells": {"test_system": "MCF7 cells", "assay": "MCF7 cell survival, Ho assay", "format": "cell-based, human", "conditions": "DTX 5 uM (clinical dose), 72 h, P<0.01", "experimental": "as §3\nTreatment by DTX at clinical dose contributes to induction of drug resistance. […] We finally examined the effect of DTX on MCF7 cell survival and HIF-1 transcription. In this aim, DTX was tested at 2 concentrations 1 nM and 5 uM (a concentration representative of blood levels after DTX administration, Investigator Brochure 2002). Al tests were carried out on highly proliferative cells cultured in MEM medium supplemented with 10% FBS. Survival was assayed with the Ho assay after 6 h and 72 h."}, "survivin": {"test_system": "survivin", "assay": "Western blot of survivin in MCF7 cells", "format": "cell-based, human", "conditions": "MCF7, DTX at clinical doses", "experimental": "Western blot: After treatment, control and treated cells were washed with PBS, then incubated in PBS containing 1 mM of each NaF and Na3VO4 and solubilized on ice in lysis buffer [150 mM NaCl, 10 mM Tris-HCl, pH 7.4, 1 mM EDTA, 1 mM EGTA, 1 mM NaF, 1 mM Na3VO4, 0.5% (v/v) Nonidet P-40, and 1% (v/v) Triton X-100] or in FosRipa buffer (10 mM Tris/HCl pH 7.5, 250 mM NaCl, 0.1% SDS, 1% Nonidet P40, 1% sodium deoxycholate). When needed insoluble pellets were solubilized in Laemmli samples buffer (62.5 mM Tris-HCl pH 6.8, 2.4% SDS, 100 mM DDT, 10% glycerol, 1 mM EDTA, 0.001% bromphenol blue), heated for 5 min at 96° C. and centrifuged briefly before loading. Protein concentrations and Western blotting was performed according to standard procedures. Equal amounts of protein (50 μg) were loaded for separation via 7.5% SDS-PAGE. Mouse monoclonal antisera directed against HIF-1α or survivin were used as primary antibodies and horseradish peroxidase-coupled anti-mouse (Dako) as secondary antibodies."}, "[5]": {"conditions": "DTX treatment alone; cited from earlier work"}},
  "data": [
    {"smiles": "CCCCCCCCCCCCCCCCCCNC(=O)OCC(COP(=O)([O-])OCC[n+]1ccsc1)OC", "note": "(stereo not drawn) [CV-3988]", "values": [
      {"measurement": "(3H)-VBL accumulation in MDCK-MDR1 cells", "setting": "P-glycoprotein (Pgp)", "value": "promotes (^3H)-VBL accumulation"}
    ]},
    {"smiles": "COc1cc(/C=C/C(=O)CC(=O)/C=C/c2ccc(O)c(OC)c2)ccc1O", "note": "[curcumin, (1E,6E)-1,7-bis (4-hydroxy-3-methoxyphenyl)-1,6-heptadiene-3,5-dione]", "values": [
      {"measurement": "effect of co-treatment on DTX efficacy", "setting": "U87 glioblastoma cells", "value": "enhances in a synergistic manner DTX efficacy"},
      {"measurement": "PAF synthesis", "setting": "PAF synthesis", "value": "down-regulation of PAF synthesis"},
      {"measurement": "growth of all tested tumor lines", "setting": "[1]", "value": "strongly impairs the growth"},
      {"measurement": "stabilisation, patients", "setting": "[2]", "value": "5/15"},
      {"measurement": "HIF-1α level after curcumin post-treatment", "setting": "HIF-1α; MCF7, DTX 5 uM 72 h, then 6 h EGF 10 ng/mL + MG-132 with or without curcumin 10 uM", "value": "lower amount of HIF-1α"},
      {"measurement": "proliferation of PA1 cells", "setting": "[3]", "value": "suppressed"},
      {"measurement": "proliferation decreased", "setting": "[4]; curcumin 10 uM", "value": 23, "unit": "%"},
      {"measurement": "effect of co-treatment on DTX efficacy", "setting": "[4]; curcumin 10 uM + DTX 1 nM, 48 h co-treatment", "value": "enhances in a synergistic manner DTX efficacy"},
      {"measurement": "toxicity for primary fibroblasts", "setting": "primary fibroblasts", "value": "without significant toxicity"}
    ]},
    {"smiles": "CC(=O)O[C@@]12CO[C@@H]1C[C@H](O)[C@@]1(C)C(=O)[C@H](O)C3=C(C)[C@@H](OC(=O)[C@H](O)[C@@H](NC(=O)OC(C)(C)C)c4ccccc4)C[C@@](O)([C@@H](OC(=O)c4ccccc4)[C@H]21)C3(C)C", "note": "[DTX, (2R,3S)-N-carboxy-3-phenylisoserine, N-tert-butyl ester, 13-ester with 5, 20-epoxy-1,2,4,7, 10, 13-hexahydroxytax-11-en-9-one 4-acetate 2-benzoate, trihydrate]", "values": [
      {"measurement": "MCF7 survival decreased", "setting": "MCF7 cells", "value": 92, "unit": "%"},
      {"measurement": "survivin expression in surviving cells vs control", "setting": "survivin", "value": "higher amount of survivin than control cells"},
      {"measurement": "HIF-1α in resistant sub-populations vs control", "setting": "HIF-1α; MCF7, DTX at clinical doses", "value": "higher amounts of HIF-1α than control cells"},
      {"measurement": "HIF-1α in resistant sub-populations vs control", "setting": "HIF-1α; MCF7, DTX at low concentration", "value": "less HIF-1α than control cells"},
      {"measurement": "number of objective responses usually observed", "setting": "[5]", "value": "around 50%"}
    ]}
  ]
}
